“Also recorded” adds a separate entry of the source. Like-named read-outs stand apart in the source and are kept apart here.
Assays:
[1] = test system: Paclitaxel-induced neuropathy; assay: Prevention of paclitaxel-induced neuropathy; type: in vivo, rat; conditions: 15 mg/kg intraperitoneally 30 minutes prior to paclitaxel; rats
Experimental: A mixture of saline and CREMOPHOR®ELP 10% was used as vehicle for paclitaxel. It was injected at a concentration of 1.0 mg/kg intraperitoneally to the chemotherapy-treated group of rats on 4 consecutive days for a final cumulative dose of 4 mg/kg to 18 rats.
Assessment of neuropathic pain. Paw withdrawal thresholds were determined daily in both hind paws of each animal using calibrated von Frey monofilaments according to an up-down procedure. A series of von Frey filaments with exponentially incremental degrees of stiffness (0.4, 0.7, 1.2, 2.0, 3.6, 5.5, 8.5, and 15.1 g) was used to measure the 50% threshold for both hindpaw withdrawal in awake, unrestrained rats. Chaplan, S. R., Quantitative assessment of tactile allodynia in the rat paw, Journal of Neuroscience Methods, 1994, 53:55-63. […]
Group 1 of rats received paclitaxel for four days, as described immediately above in subpart (A) titled “Paclitaxel-induced Neuropathy.” In group 2, a dose of 15 mg/kg of the compound of Example 6, injected intraperitoneally was administered 30 minutes prior to the administration of paclitaxel. […] Paw withdrawal thresholds were determined daily in both hind paws of each animal using calibrated von Frey monofilaments according to an up-down procedure as described immediately above in subpart (A) titled “Paclitaxel-induced Neuropathy.” The results are shown in FIG. 14.

[2] = biological target: T1, human CB1 (hCB1) receptor (Homo sapiens, UniProt P21554); assay: CB1 binding assay, competitive binding of [3H]CP 55940; set-up: % Inhibition of Control Specific Binding CB1: concentration or dose not given beside the values
T1 construct: expressed in transfected cells; host or cells: CHO (Chinese hamster ovary) cells, membranes
T1 sequence (P21554 whole entry): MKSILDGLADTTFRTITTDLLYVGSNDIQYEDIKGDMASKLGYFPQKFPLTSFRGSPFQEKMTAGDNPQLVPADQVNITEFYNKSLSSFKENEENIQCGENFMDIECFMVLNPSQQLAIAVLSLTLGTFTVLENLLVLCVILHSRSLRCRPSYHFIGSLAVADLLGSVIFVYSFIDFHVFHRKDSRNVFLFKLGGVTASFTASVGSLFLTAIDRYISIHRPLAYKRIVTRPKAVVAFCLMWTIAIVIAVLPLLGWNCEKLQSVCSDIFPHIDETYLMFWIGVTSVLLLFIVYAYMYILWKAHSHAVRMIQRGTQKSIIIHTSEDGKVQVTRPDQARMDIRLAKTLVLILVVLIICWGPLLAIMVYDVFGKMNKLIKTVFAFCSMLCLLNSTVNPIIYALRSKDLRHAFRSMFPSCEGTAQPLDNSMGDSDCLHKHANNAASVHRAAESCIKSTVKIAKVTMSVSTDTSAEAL
In short: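 CHO cell membranes expressing human CB1 (25 μg protein) incubated 120 min at 37 °C with 0.5 nM [3H]CP 55940 in Tris-HCl pH 7.4 buffer with MgCl2, EDTA, 0.3% BSA. Filtration and scintillation counting; compound tested at 1 μM, given as percent inhibition of control specific binding.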

[3] = test system: exploratory behavior; assay: Open field chamber testing; type: in vivo, rat; conditions: 15 mg/kg i.p.; versus vehicle; scored for 60 minutes; rats
Experimental: The automated open-field chamber (Med Associates ENV-515 Test Environment, St. Albans, Vt.) 43.2×43.2×30.5 cm (L×W×H) equipped with three pairs of 16 infrared arrays that continually monitored the animal's movement was used to determine potential CNS effects of compound of Example 6 and the vehicle in naïve rats. Rats were individually tested 15 min after i.p. drug administration. The infrared beams were set 2.5 cm apart horizontally and at a height of 3 cm above the floor, with the rearing array set at 12 cm from the floor. The area in the box was divided into 4 equal quadrants (zones), with data collected within each quadrant and across quadrants (zone entries). An ambulatory movement was defined as a motion of at least 5 cm and was coded by quadrant. Vertical movements were counted when the rat moved vertically a minimum of 12 cm from the floor. Zone entries were defined as an entry into a zone (from another zone). Entry into a zone was counted when the rat was far enough into the zone to break 2 sets of photoelectric beams for the new zone beams during an ambulatory movement.

[4] = biological target: T2, hCB2 receptor (Homo sapiens, UniProt P34972); assay: CB2 functional assay, [35S]GTP-γ-S binding; type: biochemical
T2 construct: purchased ES-111-MG; host or cells: CHO membrane extracts
T2 sequence (P34972 whole entry): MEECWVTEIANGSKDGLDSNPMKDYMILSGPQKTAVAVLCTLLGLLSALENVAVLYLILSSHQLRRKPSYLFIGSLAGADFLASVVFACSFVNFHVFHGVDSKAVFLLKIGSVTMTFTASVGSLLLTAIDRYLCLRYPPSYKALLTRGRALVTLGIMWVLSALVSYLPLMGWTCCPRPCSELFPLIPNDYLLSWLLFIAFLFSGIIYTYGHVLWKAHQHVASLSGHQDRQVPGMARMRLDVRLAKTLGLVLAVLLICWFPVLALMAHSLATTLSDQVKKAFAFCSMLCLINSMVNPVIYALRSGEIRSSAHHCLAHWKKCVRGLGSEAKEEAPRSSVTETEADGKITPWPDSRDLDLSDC

CCCCCCN1C(=O)/C(=N\NC(=O)c2ccccc2)c2ccccc21 [Example 6, Benzoic acid [1-n-hexyl-2-oxo-1,2-dihydro-indol-3-ylidene]-hydrazide]
development of paclitaxel-induced peripheral neuropathy (paw withdrawal threshold) [1]: prevented the development of neuropathic pain induced by paclitaxel
% Inhibition of Control Specific Binding ([2]; CB1, Test Concentration 1.0E−05 (MD)): 96%
% of Control Specific Binding 1st ([2]; CB1, Test Concentration 1.0E−05 (MD), 1st determination): 4.5%
% of Control Specific Binding 2nd ([2]; CB1, Test Concentration 1.0E−05 (MD), 2nd determination): 4.5%
% of Control Specific Binding Mean ([2]; CB1, Test Concentration 1.0E−05 (MD), mean): 4.5%
% Inhibition of Control Specific Binding CB1 ([2]; Table 3, concentration not given): 96%
inhibition at 1 µM ([2]; at 1 μM, specific binding of [3H]-CP55940, CHO membranes): 95.5%
inhibition at 10 µM ([2]; at 10 μM, specific binding of [3H]-CP55940): 95.5%
exploratory behavior in the open field (distance traveled, ambulatory time, vertical activity, zone entries) [3]: No significant differences; also recorded: did not decrease the exploratory behavior
% Activation Average ([4]; CB2 Functional Activity): 68.81%
Compound Activity ([4]; CB2 Functional Activity): Agonist
EC50 ([4]; CB2 Functional Activity, read-out: EC50 (nM) for GTP Binding): 63.4 nM
ratio EC50(CB1)/EC50(CB2) ([4]; CB2 receptor selectivity, [35S]GTP-γ-S): 14
EC50 ([4]; Table 7, mean of two determinations, read-out: [35S]GTP-γ-S (hCB2) EC50 (nM ± SEM)): 63.4 ± 1.3 nM
Emax ([4]; Table 7, relative to the efficacy of CP55940): 68.8%
EC50 ([4]; Table 9, mean of two determinations, read-out: [35S]GTP-γ-S hCB2 EC50 (nM ± SEM)): 63.4 ± 1.3 nM
Emax ([4]; Table 9, relative to the efficacy of CP 55,940): 68.8%
times less potent compared to the reference compound CP55,940 ([4]; functional activity, [35S]GTP-γ-S): seven

From patent publication US9079854B2 (priority 2007, dated 2015)
